From PMC12228687, “Harnessing protein language model for structure-based discovery of highly efficient and robust PET hydrolases” (Nature Communications, 2025)

Biological target: T1, FastPETase (mutant derived from IsPETase) (Pseudideonella sakaiensis, UniProt A0A0K8P6T7, S121E/D186H/R224Q/N233K/R280A, form not given)
T1 construct: gene ISF6_4831; engineered variant FastPETase; construct not described in the main text
Test: p-nitrophenol release at […] nm, Michaelis-Menten nonlinear fit
Format: biochemical
Conditions: 10 mM potassium phosphate pH 8.0 (stock buffer), 50 °C, 3 min, 0.5 µg/mL enzyme, 0.2-1.8 mM pNPB

T1 sequence (A0A0K8P6T7 28-290 S121E/D186H/R224Q/N233K/R280A, form open): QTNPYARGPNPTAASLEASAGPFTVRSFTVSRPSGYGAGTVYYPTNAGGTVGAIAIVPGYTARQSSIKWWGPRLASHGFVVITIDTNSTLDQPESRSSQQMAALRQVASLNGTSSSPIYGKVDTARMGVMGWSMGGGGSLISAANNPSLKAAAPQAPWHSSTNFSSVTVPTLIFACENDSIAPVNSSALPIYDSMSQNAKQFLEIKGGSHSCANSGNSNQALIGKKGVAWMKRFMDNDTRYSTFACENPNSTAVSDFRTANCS

CCCC(=O)Oc1ccc([N+](=O)[O-])cc1 [p-nitrophenyl butyrate]
Km: 1570 ± 416 µM
